According to patent US7119073B2, “Peptides and their use as inhibitors of hepatitis C virus ns3 protease” (Istituto Di Ricerche Di Biologia Molecolare P. Angeletti SpA, priority 2001, dated 2006):
pIC50: −log10 of the molar value.

Target: T1, full length NS3 protein noncovalently complexed with the full-length NS4A cofactor protein (NS3/NS4A complex) (Hepatitis C virus genotype 1b, UniProt P26663)
T1 construct: full length NS3 protein spanning residues 1027–1657 of the HCV polyprotein
Experiment: Full-length NS3-NS4A heterodimer protein assay (Assay A)
Format: biochemical, hepatitis C virus (HCV)
Conditions: Table 1; full-length NS3/NS4A, NS5A-NS5B peptide substrate; read-out: Assay A
Experimental: Full-Length NS3-NS4A Heterodimer Protein Assay (Assay A)
(Gallinari, P., Paolini, C., Brennan, D., Nardi, C., Steinkühler, C. and De Francesco, R. Modulation of hepatitis C virus NS3 protease and helicase activities through the interaction with NS4A. Biochemistry 38, 5620–5632, 1999)
In this assay the full length NS3 protein spanning residues 1027–1657 of the HCV polyprotein, noncovalently complexed with the full-length NS4A cofactor protein (residues 1658–1711) was used. Assays were performed in 60 μl of a buffer containing 50 mM Hepes pH 7.5, 0.15 M NaCl, 0.1% (v/v) Triton X-100, 15% (v/v) glycerol, 10 mM DTT, 2 nM NS3/NS4A complex. To this assay mix 10 μM (final concentration) of a peptide substrate corresponding to the NS5AB cleavage site and having the sequence of the NS5A-NS5B peptide, were added. Incubation times at 23° C. were adjusted to obtain <10% conversion. Reactions were stopped by the addition of 40 μl of 1% TFA. Cleavage was determined by HPLC using a Merck-Hitachi chromatograph equipped with an autosampler. 80 μl samples were injected on a Lichrospher C18 reversed phase cartridge column (4×74 mm, 5 μm, Merck) and fragments were separated using a 10–40% acetonitrile gradient at 5%/min using a flow rate of 2.5 ml/min. Peak detection was done by monitoring both the absorbance at 220 nm and tryptophan fluorescence (λex=280 nm, λem=350 nm). Cleavage products were quantitated by integration of chromatograms with respect to appropriate standards. Kinetic parameters were calculated from nonlinear least-squares fit of initial rates as a function of substrate concentration with the help of a Kaleidagraph software, assuming Michaelis-Menten kinetics.
Ki values of peptide inhibitors were calculated from substrate titration experiments performed in the presence of increasing amounts of inhibitor. Experimental data sets were simultaneously fitted to eg.1 using a multicurve fit macro with the help of a Sigmaplot software: V=(VmaxS)/(Km([…])+S); (eq.1) Alternatively, Ki values were derived from IC50 values, calculated using a four-parameter logistic function, according to eq.2: IC50=(1+S/Km)Ki (eq.2)

T1 sequence (P26663 1027-1657): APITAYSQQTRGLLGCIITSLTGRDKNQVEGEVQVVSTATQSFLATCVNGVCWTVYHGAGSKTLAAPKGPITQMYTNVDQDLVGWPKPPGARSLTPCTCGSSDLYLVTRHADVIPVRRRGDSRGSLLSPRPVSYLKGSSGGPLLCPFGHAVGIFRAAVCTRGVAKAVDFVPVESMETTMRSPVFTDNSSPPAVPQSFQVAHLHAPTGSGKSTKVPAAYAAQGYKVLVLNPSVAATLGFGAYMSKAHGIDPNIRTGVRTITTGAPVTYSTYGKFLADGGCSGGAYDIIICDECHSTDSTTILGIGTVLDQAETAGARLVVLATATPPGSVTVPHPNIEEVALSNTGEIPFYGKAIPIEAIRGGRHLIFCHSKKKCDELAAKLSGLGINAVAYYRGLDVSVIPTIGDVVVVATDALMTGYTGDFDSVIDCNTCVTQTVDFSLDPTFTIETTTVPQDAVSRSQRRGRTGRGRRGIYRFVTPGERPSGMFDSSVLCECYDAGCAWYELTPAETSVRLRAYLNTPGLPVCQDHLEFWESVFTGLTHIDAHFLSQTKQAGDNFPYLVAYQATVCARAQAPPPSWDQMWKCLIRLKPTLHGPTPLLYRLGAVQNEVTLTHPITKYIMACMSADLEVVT
T1 sequence (P26663 1658-1711): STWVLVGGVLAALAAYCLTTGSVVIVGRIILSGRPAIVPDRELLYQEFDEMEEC

Compound	pIC50
CC(C)COC(=O)NC(C(=O)NC(CC(C)C)C(=O)NC(CC(F)F)C(=O)NCCc1ccccc1CCC(=O)O)C(C)C (centres unmarked) [Compound 125]	> 4.00

Same assay, conditions: Table 5; full-length NS3/NS4A; read-out: AssayA

Compound	pIC50
CC(C)COC(=O)N[C@H](C(=O)N1C[C@H]([S+]([O-])C2CCCCC2)C[C@H]1C(=O)N[C@@H](CC(F)F)C(=O)NCCc1c(F)cc(C(=O)O)cc1F)C(C)C (mixture of isomers) [Compound 552]	> 6.00
CCC(Nc1cccc(CCNC(=O)[C@H](CC(F)F)NC(=O)[C@@H]2C[C@@H](c3ccccc3)CN2C(=O)[C@@H](NC(=O)OCC(C)C)C(C)C)c1)C(=O)O (mixture of isomers) [Compound 563]	> 5.00
CC(C)COC(=O)N[C@H](C(=O)N1C[C@H](c2ccccc2)C[C@H]1C(=O)N[C@@H](CC(F)F)C(=O)NCCc1cccc(NC(C(=O)O)c2ccccc2)c1)C(C)C (mixture of isomers) [Compound 564]	> 5.00
CC(Oc1ccc(F)c(CCNC(=O)[C@H](CC(F)F)NC(=O)[C@@H]2C[C@@H](C3CCCCC3)CN2C(=O)[C@@H](NC(=O)OCC(C)(C)C)C(C)C)c1F)C(=O)O (mixture of isomers) [Compound 567]	> 6.00
CCC(Oc1ccc(F)c(CCNC(=O)[C@H](CC(F)F)NC(=O)[C@@H]2C[C@@H](C3CCCCC3)CN2C(=O)[C@@H](NC(=O)OCC(C)C)C(C)C)c1F)C(=O)O (mixture of isomers) [Compound 568]	> 6.00
CC(C)COC(=O)N[C@H](C(=O)N1C[C@H](c2ccccc2)C[C@H]1C(=O)N[C@@H](CC(F)F)C(=O)NCCc1cccc(OC(C(=O)O)c2ccccc2)c1)C(C)C (mixture of isomers) [Compound 569]	> 5.00
CC(C)COC(=O)N[C@H](C(=O)N1C[C@H](c2ccccc2)C[C@H]1C(=O)N[C@@H](CC(F)F)C(=O)NCCc1cccc(OC(C(=O)O)c2ccc(Br)cc2)c1)C(C)C (mixture of isomers) [Compound 570]	> 6.00
CC(C)COC(=O)N[C@H](C(=O)N1C[C@H](c2ccccc2)C[C@H]1C(=O)N[C@@H](CC(F)F)C(=O)NCCc1cc(OC(C(=O)O)c2cccc(Cl)c2)ccc1Cl)C(C)C (mixture of isomers) [Compound 571]	> 5.00
CC(C)COC(=O)NC(CCC(=O)O)C(=O)N1CCCC1C(=O)NC(CS)C(=O)NCCc1ccccc1Cl (centres unmarked) [Compound 501]	> 4.00
CC(C)COC(=O)NC(C(=O)N1CCCC1C(=O)NC(CC(F)F)C(=O)NCCc1c(F)cc(C(=O)O)cc1F)C(C)C (centres unmarked) [Compound 502]	> 5.00
CC(C)COC(=O)N[C@@H](CCC(=O)O)C(=O)N1C[C@H](O)C[C@H]1C(=O)N[C@@H](CS)C(=O)NCCc1ccccc1Cl [Compound 503]	> 4.00
COCCOCO[C@@H]1C[C@@H](C(=O)N[C@@H](CC(F)F)C(=O)NCCc2c(F)cc(C(=O)O)cc2F)N(C(=O)[C@@H](NC(=O)OCC(C)C)C(C)C)C1 [Compound 505]	> 5.00
CC(C)COC(=O)N[C@@H](CCC(=O)O)C(=O)N1C[C@H](c2ccccc2)CC1C(=O)N[C@@H](CS)C(=O)NCCc1ccccc1Cl (some centres unmarked) [Compound 506]	> 5.00
CC(C)COC(=O)N[C@@H](CCC(=O)O)C(=O)N1C[C@H](OCc2ccccc2)C[C@H]1C(=O)N[C@@H](CS)C(=O)NCCc1ccccc1Cl [Compound 507]	> 5.00
CC(C)COC(=O)N[C@@H](CCC(=O)O)C(=O)N1C[C@H](c2ccccc2)C[C@H]1C(=O)N[C@@H](CS)C(=O)NCCc1ccccc1Br [Compound 508]	> 4.00
CC(C)COC(=O)N[C@H](C(=O)N1C[C@H](OCc2ccc(C(=O)O)cc2)C[C@H]1C(=O)N[C@@H](CC(F)F)C(=O)NCCc1c(Cl)cccc1Cl)C(C)C [Compound 509]	> 4.00
CC(C)COC(=O)N[C@@H](CCC(=O)O)C(=O)N1C[C@H](c2ccccc2)C[C@H]1C(=O)N[C@@H](CC(F)F)C(=O)NCCc1ccccc1-c1ccccc1 [Compound 510]	> 5.00
CC(C)COC(=O)N[C@@H](CCC(=O)O)C(=O)N1C[C@H](c2ccccc2)C[C@H]1C(=O)N[C@@H](CC(F)F)C(=O)NCCC1=CCCCC1 [Compound 511]	> 4.00
CC(C)COC(=O)N[C@@H](CCC(=O)O)C(=O)N1C[C@H](c2ccccc2)C[C@H]1C(=O)N[C@@H](CS)C(=O)NCCc1ccc(C(=O)O)cc1 [Compound 512]	> 4.00

Compound	pIC50
O=C(O)CC[C@H](NS(=O)(=O)c1cccc2ccccc12)C(=O)N1C[C@H](c2ccccc2)C[C@H]1C(=O)N[C@@H](CS)C(=O)NCCc1ccc(C(=O)O)cc1 [Compound 513]	> 4.00
COC(=O)c1ccc(CCNC(=O)[C@H](CS)NC(=O)[C@@H]2C[C@@H](c3ccccc3)CN2C(=O)[C@H](CCC(=O)O)NS(=O)(=O)c2cccc3ccccc23)cc1 [Compound 514]	> 4.00
O=C(O)CC[C@H](NC(=O)[C@@H](O)c1ccccc1)C(=O)N1C[C@H](c2ccccc2)C[C@H]1C(=O)N[C@@H](CS)C(=O)NCCc1ccc(C(=O)O)cc1 [Compound 515]	> 4.00
CC(C)COC(=O)N[C@H](C(=O)N1C[C@H](c2ccccc2)C[C@H]1C(=O)N[C@@H](CS)C(=O)NCCc1ccc(C(=O)O)cc1)C(C)C [Compound 516]	> 5.00
CC(C)COC(=O)N[C@H](C(=O)N1C[C@H](c2ccccc2)C[C@H]1C(=O)N[C@@H](CC(F)F)C(=O)NCCc1ccc(C(=O)O)cc1)C(C)C [Compound 517]	> 5.00
CC(C)COC(=O)N[C@H](C(=O)N1C[C@H](c2ccccc2)C[C@H]1C(=O)N[C@@H](CC(F)F)C(=O)NCCc1ccc(-c2nn[nH]n2)cc1)C(C)C [Compound 518]	> 5.00
CC(C)COC(=O)N[C@H](C(=O)N1C[C@H](c2ccccc2)C[C@H]1C(=O)N[C@@H](CC(F)F)C(=O)NCCc1ccc(-c2noc(=O)[nH]2)cc1)C(C)C [Compound 519]	> 4.00
CC(C)COC(=O)N[C@@H](CCC(=O)O)C(=O)N1C[C@H](c2ccccc2)C[C@H]1C(=O)N[C@@H](CS)C(=O)NCCc1ccc(C(=O)O)cc1Cl [Compound 520]	> 5.00
CC(C)COC(=O)N[C@H](C(=O)N1C[C@H](c2ccccc2)C[C@H]1C(=O)N[C@@H](CS)C(=O)NCCc1ccc(C(=O)O)cc1Cl)C(C)C [Compound 521]	> 6.00
CC(C)COC(=O)N[C@H](C(=O)N1C[C@H](c2ccccc2)C[C@H]1C(=O)N[C@@H](CC(F)F)C(=O)NCCc1c(F)cc(C(=O)OC(C)C)cc1F)C(C)C [Compound 524]	> 4.00
CC[C@H](NC(=O)[C@@H]1C[C@@H](c2ccccc2)CN1C(=O)[C@@H](NC(=O)OCC(C)C)C(C)C)C(=O)NCCc1c(F)cc(C(=O)O)cc1F [Compound 525]	> 4.00
CC(C)COC(=O)N[C@H](C(=O)N1C[C@H](OCc2ccccc2)CC1C(=O)N[C@@H](CC(F)F)C(=O)NCCc1c(F)cc(C(=O)O)cc1F)C(C)C (some centres unmarked) [Compound 526]	> 6.00
CC(C)COC(=O)N[C@H](C(=O)N1C[C@@H](OCc2ccccc2)C[C@H]1C(=O)N[C@@H](CC(F)F)C(=O)NCCc1c(F)cc(C(=O)O)cc1F)C(C)C [Compound 527]	> 5.00
CC(C)COC(=O)N[C@H](C(=O)N1C[C@H](C2CCCCC2)C[C@H]1C(=O)N[C@@H](CC(F)F)C(=O)NCCc1c(F)cc(C(=O)O)cc1F)C(C)C [Compound 528]	> 6.00
CC(C)COC(=O)N[C@H](C(=O)N1C[C@H](C2CCCCC2)C[C@H]1C(=O)N[C@@H](CC(F)(F)F)C(=O)NCCc1c(F)cc(C(=O)O)cc1F)C(C)C [Compound 529]	> 5.00
CC(C)COC(=O)N[C@H](C(=O)N1C[C@H](OCc2ccccc2)C[C@H]1C(=O)N[C@@H](CC(F)(F)F)C(=O)NCCc1c(F)cc(C(=O)O)cc1F)C(C)C [Compound 530]	> 5.00
CC(C)COC(=O)N[C@H](C(=O)N1C[C@H](C2CCCCC2)C[C@H]1C(=O)N[C@@H](CC(F)F)C(=O)NCCc1ccc(C(=O)O)cc1F)C(C)C [Compound 531]	> 5.00
CC(C)COC(=O)N[C@H](C(=O)N1C[C@H](C2CCCCC2)C[C@H]1C(=O)N[C@@H](CC(F)F)C(=O)NCCc1ccc(C(=O)O)cc1Cl)C(C)C [Compound 532]	> 6.00
CC[C@H](C)[C@H](NC(=O)OCC(C)C)C(=O)N1C[C@H](C2CCCCC2)C[C@H]1C(=O)N[C@@H](CC(F)F)C(=O)NCCc1c(F)cc(C(=O)O)cc1F [Compound 533]	> 6.00

Same assay, conditions: full-length NS3-NS4A heterodimer protein assay; read-out: Assay A (IC50 class)

Compound	pIC50
CC(C)C[C@H](NC(=O)C1(Cc2ccsc2C(=O)O)Cc2ccccc2N1)C(=O)N[C@@H](CC(F)F)C(=O)NCCc1cc2ccccc2[nH]1 (single isomer, unassigned) [Compound 707a]	> 4.00
CC(C)C[C@H](NC(=O)C1(Cc2ccsc2C(=O)O)Cc2ccccc2N1)C(=O)N[C@@H](CC(F)F)C(=O)NCCc1cc2ccccc2[nH]1 (single isomer, unassigned) [Compound 707b]	> 4.00
